{"source": "patent US20260049104A1", "about": "“PEPTIDES WITH ANTIMICROBIAL PROPERTIES” (priority 2022, published 2026)", "key": {"Pseudomonas aeruginosa": {"test_system": "Pseudomonas aeruginosa", "type": "cell-based", "details": "for MIC value: Table 15, unit inferred", "source_text": "(§1) The experiments were repeated three times."}, "Enterococcus faecalis": {"test_system": "Enterococcus faecalis", "type": "cell-based", "details": "strain not given, Table 14, preliminary screening", "description": "MIC values for compounds (1-11) were assessed using 96-well plate format with Mueller Hinton (MH) broth, using the two-fold dilution method, previously reported in standard methods provided by Clinical and Laboratory Standards S8 Institute (CLSI). Kanamycin and ampicillin were used as antibacterial control agents. According to the reference, the compounds (1-11) were first dissolved in DMSO+0.1% TFA at a concentration of 3.2 mg/mL and 4 μL was serially diluted in 96 μL of MH broth. Then, sequential 2-fold serial dilutions of the mix were diluted in 50 μL MH broth and 50 μL cell cultures were added to wells. […] All assays were carried out in triplicate."}, "Acinetobacter baumannii": {"test_system": "Acinetobacter baumannii", "details": "for MIC value: Table 15, unit inferred", "description": "(§2) MIC screening of the peptides against a panel of ATCC and clinical strains was performed using broth microdilution method.^1 Briefly, peptides stock solutions in DMSO (0.1/G TFA) were diluted into Mueller Hinton Broth (MHB), followed by two-fold serial dilution in a 96-well plate. Bacteria culture in mid-log phase was diluted into MHB to yield […] colony-forming units (CFU)/mL. Equal volume of the starting inoculum was added to the peptide samples, then incubated for 18-20 h (37° C., 120 rpm). OD600 of the samples was then measured using Tecan Infinite M200 (TECAN, Männedorf, Switzerland). MIC is defined as the lowest peptide concentration to achieve more than 90% reduction in OD600 relative to the drug-free control. The experiments were repeated three times. Colistin-resistant clinical isolates are a kind gift from Dr. Jeanette Koh (National University Hospital, Singapore). Multidrug-resistant clinical isolates are a kind gift from Dr. Lakshminarayanan Rajamani (Singapore Eye Research Institute, Singapore).\n(§3) Kanamycin and ampicillin were used as antibacterial control agents. […] Then, sequential 2-fold serial dilutions of the mix were diluted in 50 μL MH broth and 50 μL cell cultures were added to wells. […] All assays were carried out in triplicate."}, "Enterobacter cloacae": {"test_system": "Enterobacter cloacae", "details": "for MIC value: Table 15, unit inferred", "description": "as §2, §3"}, "Escherichia coli": {"test_system": "Escherichia coli", "details": "for MIC: Escherichia coli ATCC 25922; for MIC value: Table 15, unit inferred", "description": "as §2, §3"}, "[1]": {"test_system": "Gram-positive and Gram-negative bacteria", "details": "E. coli, E. cloacae, A. baumannii and K. pneumoniae", "description": "as §2, §3"}, "Klebsiella pneumoniae": {"test_system": "Klebsiella pneumoniae", "details": "for MIC value: Table 15, unit inferred", "description": "as §2, §3"}, "Staphylococcus aureus": {"test_system": "Staphylococcus aureus", "details": "Staphylococcus aureus ATCC 29737", "description": "as §2, §3"}, "Bacillus subtilis": {"test_system": "Bacillus subtilis", "type": "cell-based", "details": "Bacillus subtilis ATCC 6633", "source_text": "as §1"}, "Morganella morganii": {"test_system": "Morganella morganii", "type": "cell-based", "details": "Morganella morganii ATCC 25830", "source_text": "as §1"}, "[2]": {"details": "Table 14, preliminary screening"}, "[3]": {"details": "Klebsiella pneumoniae ATCC 700603"}}, "note": "Read-outs that look alike come from different tables or passages of the source."}
{"smiles": "CC(C)[C@@H]1NC(=O)[C@@H](NC(=O)CNC(=O)[C@H](CCC(=O)O)NC(=O)CNC(=O)[C@@H](N)CCCNC(=N)N)Cc2c[nH]c3cc(ccc23)C(CCNC(=N)N)[C@@H](C(=O)N[C@@H](C)C(=O)N[C@@H](Cc2ccc(O)cc2)C(=O)N[C@H]2Cc3c[nH]c4cc(ccc34)C(CCCN)[C@@H](C(=O)N[C@@H](CCCNC(=N)N)C(=O)N[C@@H](Cc3ccccc3)C(=O)O)NC(=O)[C@H](C)NC2=O)NC1=O", "note": "(some centres unmarked) [Compound 24, xenorceptide D1]", "values": [{"measurement": "MIC value", "setting": "Pseudomonas aeruginosa; Pseudomonas aeruginosa DM4150R", "value": 32, "unit": "µg/mL"}, {"measurement": "MIC value", "setting": "Pseudomonas aeruginosa; Pseudomonas aeruginosa DM23376", "value": 16, "unit": "µg/mL"}, {"measurement": "MIC value", "setting": "Pseudomonas aeruginosa; Pseudomonas aeruginosa DR4877/07", "value": 16, "unit": "µg/mL"}, {"measurement": "MIC value", "setting": "Pseudomonas aeruginosa; Pseudomonas aeruginosa DR5790/07", "value": 16, "unit": "µg/mL"}, {"measurement": "MIC", "setting": "Enterococcus faecalis", "value": 64, "unit": "µg/mL"}, {"measurement": "MIC value", "setting": "Acinetobacter baumannii; Acinetobacter baumanii ACβA1001", "value": 4, "unit": "µg/mL"}, {"measurement": "MIC value", "setting": "Acinetobacter baumannii; Acinetobacter baumanii ACβA1002", "value": 4, "unit": "µg/mL"}, {"measurement": "MIC value", "setting": "Acinetobacter baumannii; Acinetobacter baumanii ACβA1003", "value": 4, "unit": "µg/mL"}, {"measurement": "MIC value", "setting": "Acinetobacter baumannii; Acinetobacter baumanii ACβA1004", "value": 4, "unit": "µg/mL"}, {"measurement": "MIC", "setting": "Acinetobacter baumannii; Acinetobacter baumanii ATCC 19606, Table 14, preliminary screening", "value": 2, "unit": "µg/mL"}, {"measurement": "MIC value", "setting": "Acinetobacter baumannii; Acinetobacter baumanii ATCC 19606", "value": 2, "unit": "µg/mL"}, {"measurement": "MIC value", "setting": "Enterobacter cloacae; Enterobacter cloacae ATCC 13047", "value": 4, "unit": "µg/mL"}, {"measurement": "MIC value", "setting": "Enterobacter cloacae; Enterobacter cloacae CRE1010", "value": 4, "unit": "µg/mL"}, {"measurement": "MIC value", "setting": "Enterobacter cloacae; Enterobacter cloacae CRE1014", "value": 8, "unit": "µg/mL"}, {"measurement": "MIC value", "setting": "Enterobacter cloacae; Enterobacter cloacae CRE1015", "value": 8, "unit": "µg/mL"}, {"measurement": "MIC value", "setting": "Enterobacter cloacae; Enterobacter cloacae CRE1016", "value": 8, "unit": "µg/mL"}, {"measurement": "MIC value", "setting": "Enterobacter cloacae; Enterobacter cloacae CRE1017", "value": 8, "unit": "µg/mL"}, {"measurement": "MIC", "setting": "Enterobacter cloacae; Enterobacter cloacae, strain not given, Table 14, preliminary screening", "value": 4, "unit": "µg/mL"}, {"measurement": "MIC", "setting": "Escherichia coli; [2]", "value": 1, "unit": "µg/mL"}, {"measurement": "MIC value", "setting": "Escherichia coli; Escherichia coli M2", "value": 4, "unit": "µg/mL"}, {"measurement": "MIC value", "setting": "Escherichia coli; Escherichia coli M6", "value": 2, "unit": "µg/mL"}, {"measurement": "MIC value", "setting": "Escherichia coli; Escherichia coli M10", "value": 2, "unit": "µg/mL"}, {"measurement": "MIC value", "setting": "Escherichia coli; Escherichia coli M11", "value": 2, "unit": "µg/mL"}, {"measurement": "MIC value range", "setting": "[1]", "value": "1 to 4", "unit": "µg/mL"}, {"measurement": "MIC value", "setting": "Klebsiella pneumoniae; ATCC 25922, printed under Klebsiella pneumoniae", "value": 1, "unit": "µg/mL"}, {"measurement": "MIC value", "setting": "Klebsiella pneumoniae; CRE1006, Klebsiella pneumoniae", "value": 2, "unit": "µg/mL"}, {"measurement": "MIC", "setting": "Klebsiella pneumoniae; Klebsiella pneumoniae ATC 700603, Table 14, preliminary screening", "value": 2, "unit": "µg/mL"}, {"measurement": "MIC value", "setting": "Klebsiella pneumoniae; [3]", "value": 2, "unit": "µg/mL"}, {"measurement": "MIC value", "setting": "Klebsiella pneumoniae; Klebsiella pneumoniae CRE 1007", "value": 4, "unit": "µg/mL"}, {"measurement": "MIC value", "setting": "Klebsiella pneumoniae; Klebsiella pneumoniae CRE1008", "value": 4, "unit": "µg/mL"}, {"measurement": "MIC value", "setting": "Klebsiella pneumoniae; Klebsiella pneumoniae CRE1011", "value": 2, "unit": "µg/mL"}, {"measurement": "MIC value", "setting": "Klebsiella pneumoniae; Klebsiella pneumoniae CRE1012", "value": 4, "unit": "µg/mL"}, {"measurement": "MIC", "setting": "Staphylococcus aureus; [2]", "value": ">64", "unit": "µg/mL"}]}
{"smiles": "CC[C@H](C)[C@H](NC(=O)[C@H](CCCNC(=N)N)NC(=O)[C@H]1NC(=O)[C@H]([C@@H](C)O)NC(=O)[C@@H](NC(=O)[C@H]2NC(=O)[C@H](C)NC(=O)[C@@H](NC(=O)[C@H](C)NC(=O)[C@H]3NC(=O)[C@H]([C@@H](C)CC)NC(=O)[C@@H](N)Cc4c[nH]c5cc(ccc45)[C@@H]3C(N)=O)Cc3ccc(cc3)[C@@H]2C(N)=O)Cc2c[nH]c3cc(ccc23)[C@@H]1CCCN)C(=O)O", "note": "[xenorceptide A3]", "values": [{"measurement": "MIC", "setting": "Bacillus subtilis", "value": ">64", "unit": "µg/mL"}, {"measurement": "MIC", "setting": "Morganella morganii", "value": 64, "unit": "µg/mL"}, {"measurement": "MIC", "setting": "Pseudomonas aeruginosa; Pseudomonas aeruginosa ATCC 9027", "value": 64, "unit": "µg/mL"}, {"measurement": "MIC", "setting": "Acinetobacter baumannii; Acinetobacter baumannii ATCC 19606", "value": ">64", "unit": "µg/mL"}, {"measurement": "MIC", "setting": "Escherichia coli", "value": 8, "unit": "µg/mL"}, {"measurement": "MIC (E. coli)", "setting": "Escherichia coli; strain not stated, product produced and tested against E. coli", "value": 8, "unit": "µg/mL"}, {"measurement": "MIC", "setting": "Klebsiella pneumoniae; [3]", "value": 8, "unit": "µg/mL"}, {"measurement": "MIC", "setting": "Staphylococcus aureus", "value": ">64", "unit": "µg/mL"}]}
